Experimental data from patent US12504425B2, “Blood vessel model” (FUJIFILM CORPORATION, priority 2017, dated 2025).

How the values were obtained:
[1] = test system: layer of rat vascular endothelial cells and layer of rat smooth muscle cells on porous membrane; assay: fluorescent bead permeability test of cell-layer-affixed blood vessel model after drug exposure; type: cell-based; conditions: drug 50 μg/ml, 0.7 μL/min, one day, both microchannels, 4 μm beads 1.81×10^6 beads/ml in upper microchannel
Procedure: In example 2 and comparative example 2, Rat Arterial Endothelial Cells produced by Angio-Proteomie were employed for the rat vascular endothelial cells, and Rat Aortic Smooth Muscle Cells produced by Lonza were employed for the rat smooth muscle cells. The lower microchannel was initially seeded with 100 μL of a cell suspension of rat smooth muscle cells having a cell concentration of 3×10^6 cells/ml. After a day of cultivation, the upper microchannel was seeded with 100 μL of a cell suspension of rat vascular endothelial cells having a cell concentration of 3×10^6 cells/ml. After two days of cultivation, the cell-layer-affixed blood vessel models of example 2 and comparative example 2 were obtained.
A culture medium dilution containing fluorescent beads at a concentration of 1.81×10^6 beads/ml for a tracer was run through the upper microchannel of the cell-layer-affixed blood vessel models produced in example 2 and comparative example 2, and a culture medium not containing fluorescent beads was run through the lower microchannel. […]

[2] = test system: layer of rat vascular endothelial cells and layer of rat smooth muscle cells on porous membrane; assay: FITC-Dextran permeability test of cell-layer-affixed blood vessel model after drug exposure; type: cell-based; conditions: drug 500 ng/ml, 0.7 μL/min, one day, upper microchannel, imaged two minutes after running FITC-Dextran
Procedure: The cells employed in example 3 and comparative example 3 were the same as that employed in example 2 and comparative example 2. To form the cell layers, the lower microchannel was initially seeded with 100 μL of a cell suspension of rat smooth muscle cells having a cell concentration of 3×10^6 cells/ml. After a day of cultivation, the upper microchannel was seeded with 100 μL of a cell suspension of rat vascular endothelial cells having a cell concentration of 1×10^6 cells/ml and cultivated for six hours. Then, a respective culture medium (rat EC medium/SMC medium) was run through each channel with a rate of fluid delivery of 0.7 μL/min using a pump. After two days of cultivation, the cell-layer-affixed blood vessel models of example 3 and comparative example 3 were obtained. […]
Two minutes after running the FITC-Dextran through the channels, an inverted microscope (product name Eclipse Ts2, made by Nikon) was used to image fluorescence in the microchannels. […]
After drug exposure, a FITC-Dextran permeability test was performed using the same method as the FITC-Dextran permeability test for the cell-layer-affixed blood vessel models described above. […] In the cell-layer-affixed blood vessel model of comparative example 3, the fluorescence observed in the lower microchannel was minimal. […]

Row | Compound | number of fluorescent beads inside the lower microchannel ([1]; blood vessel model of comparative example 2 (track-etched porous membrane)) | number of fluorescent beads inside the lower microchannel ([1]; blood vessel model of example 2 (honeycomb porous membrane)) | FITC-Dextran fluorescence observed in the lower microchannel ([2]; blood vessel model of comparative example 3 (track-etched porous membrane)) | FITC-Dextran fluorescence observed in the microchannels ([2]; blood vessel model of example 3 (honeycomb porous membrane))
1 | cytochalasin | 6.7×10^3 beads/ml | 1.7×10^5 beads/ml |  | 
2 | Oc1ccc(C2CNCCc3c2cc(O)c(O)c3Cl)cc1 (stereo not shown) [fenoldopam] |  |  | minimal | fluorescence was observed over a wide area, including in the lower microchannel
